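Grown in 96-well plates, cells were treated for 48 hours with each compound at five concentrations. Insufficient inhibition: endpoint recorded as highest concentration tested. GI50 = concentration required for 50% inhibition of growth. TGI marks complete inhibition of growth.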
Assays:
Assay in all cases: NCI tumour cell line growth inhibition, 48 h; in the data active means GI50 below about 0.43 µM; inactive means the rest
COLO 205 colon = test system: COLO 205 colon
OVCAR-3 ovarian = test system: OVCAR-3 ovarian
HOP-92 NSCLC = test system: HOP-92 NSCLC
PC-3 prostate = test system: PC-3 prostate
A498 renal = test system: A498 renal
OVCAR-4 ovarian = test system: OVCAR-4 ovarian
HS 578T breast = test system: HS 578T breast
NCI/ADR-RES ovarian = test system: NCI/ADR-RES ovarian
786-0 renal = test system: 786-0 renal

C[C@@H]1CC[C@H]2C(C(O)CCCCC(O)C3=C(C(F)(F)F)O[C@@H]4O[C@@]5(C)CC[C@H]6[C@H](C)CC[C@@H]3[C@@]46OO5)=C(C(F)(F)F)O[C@@H]3O[C@@]4(C)CC[C@@H]1[C@]32OO4 (stereo not given in full)
29.4 µM: TGI (COLO 205 colon)
> 100 µM: TGI (OVCAR-3 ovarian) | TGI (HOP-92 NSCLC) | TGI (PC-3 prostate) | TGI (A498 renal) | TGI (OVCAR-4 ovarian) | TGI (HS 578T breast)
inactive: GI50 (COLO 205 colon) 8.04 µM | GI50 (OVCAR-3 ovarian) 7.26 µM | GI50 (HOP-92 NSCLC) 11.2 µM | GI50 (PC-3 prostate) 3.96 µM | GI50 (A498 renal) 45.6 µM | GI50 (OVCAR-4 ovarian) 28.5 µM | GI50 (HS 578T breast) 37.8 µM

c1ccc2c(c1)CCc1c-2n(CCN2CCOCC2)c2ccccc12
38.1 µM: TGI (HOP-92 NSCLC)
> 100 µM: TGI (COLO 205 colon) | TGI (OVCAR-3 ovarian) | TGI (PC-3 prostate) | TGI (NCI/ADR-RES ovarian) | TGI (OVCAR-4 ovarian) | TGI (HS 578T breast) | TGI (786-0 renal)

NNC(=O)Cn1c2ccc(Br)cc2c2nc3ccccc3nc21
> 100 µM: TGI (COLO 205 colon) | TGI (OVCAR-3 ovarian) | TGI (PC-3 prostate) | TGI (NCI/ADR-RES ovarian) | TGI (A498 renal) | TGI (786-0 renal)

COc1ccc(-n2c(=O)n(C)c(=O)n2-c2ccc(OC)cc2)cc1
> 100 µM: TGI (COLO 205 colon) | TGI (OVCAR-3 ovarian) | TGI (HOP-92 NSCLC) | TGI (PC-3 prostate) | TGI (NCI/ADR-RES ovarian) | TGI (A498 renal) | TGI (HS 578T breast) | TGI (786-0 renal)

CSC1=N/C(=C\c2ccco2)C(=O)N1CN1CCOCC1
> 100 µM: TGI (COLO 205 colon) | TGI (OVCAR-3 ovarian) | TGI (PC-3 prostate) | TGI (NCI/ADR-RES ovarian) | TGI (A498 renal) | TGI (OVCAR-4 ovarian) | TGI (HS 578T breast) | TGI (786-0 renal)

O=C1/C(=N\S(=O)(=O)c2ccccc2)C([n+]2ccc(Cc3ccccc3)cc2)=C([O-])c2ccccc21
2.2 µM: TGI (OVCAR-3 ovarian)
3.58 µM: TGI (786-0 renal)
1.14 µM: TGI (COLO 205 colon)
3.13 µM: TGI (OVCAR-4 ovarian)
9.39 µM: TGI (PC-3 prostate)
12.7 µM: TGI (HOP-92 NSCLC)
18.3 µM: TGI (NCI/ADR-RES ovarian)
6.09 µM: TGI (HS 578T breast)

COc1ccc(NC(C)=O)cc1N1C(=O)/C(=C\c2cc(OC)c(OC)c(OC)c2)SC1c1ccccc1 (stereo not given)
> 100 µM: TGI (COLO 205 colon) | TGI (OVCAR-3 ovarian) | TGI (HOP-92 NSCLC) | TGI (PC-3 prostate) | TGI (NCI/ADR-RES ovarian) | TGI (A498 renal) | TGI (OVCAR-4 ovarian) | TGI (786-0 renal)

COc1ccc2nc3cc([N+](=O)[O-])ccc3c(Nc3ccc(S(=O)(=O)NC(C)=O)cc3)c2c1
> 100 µM: TGI (COLO 205 colon) | TGI (OVCAR-3 ovarian) | TGI (HOP-92 NSCLC) | TGI (PC-3 prostate) | TGI (A498 renal) | TGI (OVCAR-4 ovarian) | TGI (HS 578T breast) | TGI (786-0 renal)

O=C(c1cc(Cl)ccc1Cl)N1CCN(C(=O)c2cc(Cl)ccc2Cl)CC1
> 100 µM: TGI (OVCAR-3 ovarian) | TGI (HOP-92 NSCLC) | TGI (PC-3 prostate) | TGI (A498 renal) | TGI (OVCAR-4 ovarian) | TGI (HS 578T breast) | TGI (786-0 renal)

Cc1cc(N2CCCC2)nc(N(CCNc2ccnc3cc(Cl)ccc23)Cc2ccco2)n1
> 100 µM: TGI (PC-3 prostate) | TGI (OVCAR-4 ovarian)
42.3 µM: TGI (OVCAR-3 ovarian)
69.3 µM: TGI (HS 578T breast)
13.2 µM: TGI (HOP-92 NSCLC)
79.6 µM: TGI (NCI/ADR-RES ovarian)
7.79 µM: TGI (A498 renal)
inactive: GI50 (COLO 205 colon) 1.8 µM | GI50 (OVCAR-3 ovarian) 3.4 µM | GI50 (HOP-92 NSCLC) 1.88 µM | GI50 (PC-3 prostate) 2.84 µM | GI50 (NCI/ADR-RES ovarian) 2.99 µM | GI50 (A498 renal) 1.92 µM | GI50 (OVCAR-4 ovarian) 3.22 µM | GI50 (HS 578T breast) 6.6 µM
4.38 µM: TGI (COLO 205 colon)

O=C(OCCN=c1c2ccccc2ccc2ccccc12)c1ccc([N+](=O)[O-])cc1
> 100 µM: TGI (COLO 205 colon) | TGI (OVCAR-3 ovarian) | TGI (HOP-92 NSCLC) | TGI (PC-3 prostate) | TGI (NCI/ADR-RES ovarian) | TGI (OVCAR-4 ovarian) | TGI (HS 578T breast) | TGI (786-0 renal)

Cc1cn(Cc2cnnn2CC2OC(n3cc(C)c(=O)[nH]c3=O)CC2O)c(=O)[nH]c1=O (stereo not given)
> 100 µM: TGI (COLO 205 colon) | TGI (OVCAR-3 ovarian) | TGI (HOP-92 NSCLC) | TGI (PC-3 prostate) | TGI (NCI/ADR-RES ovarian) | TGI (A498 renal) | TGI (OVCAR-4 ovarian) | TGI (HS 578T breast)

c1cn(C23C4C5C6C4C2C6C53)cn1 (stereo not given)
> 100 µM: TGI (COLO 205 colon) | TGI (PC-3 prostate) | TGI (NCI/ADR-RES ovarian) | TGI (A498 renal) | TGI (HS 578T breast) | TGI (786-0 renal)

Cc1c(NC(=O)CSC(=S)N2CCN(Cc3ccccc3)CC2)c(=O)n(-c2ccccc2)n1C
> 100 µM: TGI (COLO 205 colon) | TGI (OVCAR-3 ovarian) | TGI (PC-3 prostate) | TGI (NCI/ADR-RES ovarian) | TGI (OVCAR-4 ovarian) | TGI (HS 578T breast) | TGI (786-0 renal)

COC1OC2COC1(OC)C1OC(C)(C)OC21 (stereo not given)
> 100 µM: TGI (COLO 205 colon) | TGI (OVCAR-3 ovarian) | TGI (PC-3 prostate) | TGI (NCI/ADR-RES ovarian) | TGI (A498 renal) | TGI (OVCAR-4 ovarian) | TGI (HS 578T breast) | TGI (786-0 renal)

COc1ccc(-c2c(C#N)c(S)n(NS(=O)(=O)c3ccc(C)cc3)c(=O)c2C#N)cc1
58.9 µM: TGI (NCI/ADR-RES ovarian)
44.6 µM: TGI (COLO 205 colon)
67.5 µM: TGI (PC-3 prostate)
31.7 µM: TGI (786-0 renal)
> 100 µM: TGI (HOP-92 NSCLC) | TGI (A498 renal) | TGI (OVCAR-4 ovarian)

COc1ccc(C(=O)/C=C/c2c(Cl)c3c(c(OC)c2Cl)OCC(=O)N3)cc1
37.2 µM: TGI (A498 renal)
8.88 µM: TGI (HOP-92 NSCLC)
8.04 µM: TGI (OVCAR-4 ovarian)
7.08 µM: TGI (NCI/ADR-RES ovarian)
inactive: GI50 (HOP-92 NSCLC) 2.44 µM | GI50 (NCI/ADR-RES ovarian) 2.62 µM | GI50 (A498 renal) 3.07 µM | GI50 (OVCAR-4 ovarian) 2.56 µM | GI50 (HS 578T breast) 4.43 µM
50.4 µM: TGI (HS 578T breast)

COc1ccc2c(c1)c(CC(=O)O)c(C)n2C(=O)c1ccc(Cl)cc1
> 100 µM: TGI (COLO 205 colon) | TGI (OVCAR-3 ovarian) | TGI (HOP-92 NSCLC) | TGI (PC-3 prostate) | TGI (NCI/ADR-RES ovarian) | TGI (OVCAR-4 ovarian) | TGI (HS 578T breast) | TGI (786-0 renal)

O=c1[nH]nc(-c2ccccc2)n1/N=C/c1cccnc1
> 100 µM: TGI (OVCAR-3 ovarian) | TGI (HOP-92 NSCLC) | TGI (PC-3 prostate) | TGI (NCI/ADR-RES ovarian) | TGI (A498 renal) | TGI (HS 578T breast) | TGI (786-0 renal)

Oc1c([Si](c2ccccc2)(c2ccccc2)c2ccccc2)cc2ccccc2c1-c1c(O)c([Si](c2ccccc2)(c2ccccc2)c2ccccc2)cc2ccccc12
> 100 µM: TGI (COLO 205 colon) | TGI (HOP-92 NSCLC) | TGI (PC-3 prostate) | TGI (NCI/ADR-RES ovarian) | TGI (A498 renal) | TGI (OVCAR-4 ovarian) | TGI (HS 578T breast) | TGI (786-0 renal)

CN(C)c1nc2oc(-c3ccccc3)c(-c3ccccc3)c2c2nnnn12
> 100 µM: TGI (COLO 205 colon) | TGI (HOP-92 NSCLC) | TGI (NCI/ADR-RES ovarian) | TGI (A498 renal) | TGI (OVCAR-4 ovarian) | TGI (HS 578T breast) | TGI (786-0 renal)

CCN(CC)c1ccc2cc(C(=O)Nc3cccc4ccccc34)c(=N)oc2c1
> 100 µM: TGI (COLO 205 colon) | TGI (HOP-92 NSCLC) | TGI (PC-3 prostate) | TGI (NCI/ADR-RES ovarian) | TGI (OVCAR-4 ovarian) | TGI (HS 578T breast) | TGI (786-0 renal)

C(CCCCc1nnc(N2CCCCC2)o1)CCCc1nnc(N2CCCCC2)o1
> 100 µM: TGI (COLO 205 colon) | TGI (OVCAR-3 ovarian) | TGI (HOP-92 NSCLC) | TGI (PC-3 prostate) | TGI (NCI/ADR-RES ovarian) | TGI (A498 renal) | TGI (OVCAR-4 ovarian) | TGI (786-0 renal)

Source: PubChem BioAssay (NCI)
